From ChEMBL document CHEMBL4739716, “Gpr139 receptor modulators” (2020)

Key:
[1] = biological target: T1, Probable G-protein coupled receptor 139 (Rattus norvegicus, UniProt P0C0W8); assay: Agonist activity at rat GPR139 expressed in CHO-K1 cells assessed as increase in calcium flux by calcium 5 dye based FLIPR assay; assay type: cell-based
T1 sequence (P0C0W8 whole entry): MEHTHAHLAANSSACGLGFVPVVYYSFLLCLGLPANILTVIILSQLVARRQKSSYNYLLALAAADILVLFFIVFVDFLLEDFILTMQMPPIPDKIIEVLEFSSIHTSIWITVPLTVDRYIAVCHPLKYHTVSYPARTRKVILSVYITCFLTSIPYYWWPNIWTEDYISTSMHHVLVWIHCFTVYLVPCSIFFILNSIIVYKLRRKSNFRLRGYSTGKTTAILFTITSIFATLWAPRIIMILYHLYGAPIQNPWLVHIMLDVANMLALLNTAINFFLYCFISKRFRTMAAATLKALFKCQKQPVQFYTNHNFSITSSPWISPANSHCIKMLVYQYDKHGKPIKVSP

[2] = biological target: T2, Probable G-protein coupled receptor 139 (Homo sapiens, UniProt Q6DWJ6); assay: Agonist activity at human GPR139 expressed in CHO-K1 cells assessed as induction of beta-arrestin 2 recruitment incubated for 90 mins by PathHunter assay; assay type: cell-based
T2 sequence (Q6DWJ6 whole entry): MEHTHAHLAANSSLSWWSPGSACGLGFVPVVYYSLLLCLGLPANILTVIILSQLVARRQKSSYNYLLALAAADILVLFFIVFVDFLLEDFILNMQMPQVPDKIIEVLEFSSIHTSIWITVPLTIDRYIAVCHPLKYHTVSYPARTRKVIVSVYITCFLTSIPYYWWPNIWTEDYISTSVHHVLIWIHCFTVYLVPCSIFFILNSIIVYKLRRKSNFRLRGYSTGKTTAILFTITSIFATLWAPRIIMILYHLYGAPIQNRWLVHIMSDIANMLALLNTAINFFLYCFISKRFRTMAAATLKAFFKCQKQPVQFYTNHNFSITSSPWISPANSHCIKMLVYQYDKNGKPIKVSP

[3] = biological target: T3, Probable G-protein coupled receptor 139 (Homo sapiens) (UniProt Q6DWJ6); assay: Agonist activity at human GPR139 expressed in CHO-K1 cells assessed as increase in calcium flux by calcium 5 dye based FLIPR assay relative to JNJ63533054; assay type: functional, cell-based; conditions: filed as agonist
T3 sequence (whole entry): T2 sequence (Q6DWJ6 whole entry)

[4] = biological target: T3, Probable G-protein coupled receptor 139 (Homo sapiens); assay: Agonist activity at human GPR139 expressed in CHO-K1 cells assessed as induction of beta-arrestin 2 recruitment incubated for 90 mins by PathHunter assay relative to JNJ63533054; assay type: cell-based
[5] = biological target: T4, Probable G-protein coupled receptor 139 (Rattus norvegicus) (UniProt P0C0W8); assay: Agonist activity at rat GPR139 expressed in CHO-K1 cells assessed as increase in calcium flux by calcium 5 dye based FLIPR assay relative to JNJ63533054; assay type: cell-based
T4 sequence (whole entry): T1 sequence (P0C0W8 whole entry)

[6] = biological target: T2, Probable G-protein coupled receptor 139; assay: Agonist activity at human GPR139 expressed in CHO-K1 cells assessed as increase in calcium flux by calcium 5 dye based FLIPR assay; assay type: functional, cell-based

| EC50 ([1]; cho-k1) [nM] | EC50 ([2]; cho-k1) [nM] | Emax [3] [%] | Emax [4] [%] | Emax ([5]; filed as agonist) [%] | EC50 ([6]; cho-k1) [nM] | EC50 [1] [nM] | EC50 [2] [nM] | Emax [5] [%] | Emax ([4]; filed as agonist) [%] | EC50 [6] [nM] | SMILES |
| --- | --- | --- | --- | --- | --- | --- | --- | --- | --- | --- | --- |
| 10 | 10 | 50 | 25 | > 80 | 10 | – | – | – | – | – | C[C@H](NC(=O)Cn1nc2c(N3CCC34CN(C)C4)cccn2c1=O)c1ccc(Cl)c(F)c1 |
| – | – | > 80 | 25 | – | 1 | < 1 | < 1 | 25 | – | – | COc1ccc2nn(CC(=O)N[C@@H](C)c3ccc(C)cc3)c(=O)n2c1 |
| – | 1 | > 80 | – | 50 | – | < 1 | – | – | > 80 | < 1 | COc1ccn2c(=O)n(CC(=O)N[C@@H](C)c3ccc(OC(F)(F)F)cc3)nc2c1 |
| 10 | – | > 80 | 25 | > 80 | 1 | – | ≥ 100 | – | – | – | C[C@H](NC(=O)Cn1nc2c(N3CCC34CNC4)cccn2c1=O)c1ccc(Cl)c(F)c1 |
| 1 | 10 | > 80 | – | 50 | 1 | – | – | – | 50 | – | Cc1ccc([C@H](C)NC(=O)Cn2nc3ccccn3c2=O)cc1 |
| 1 | – | > 80 | – | 50 | 1 | – | ≥ 100 | – | 50 | – | Cc1cc(Cl)ccc1[C@H](C)NC(=O)Cn1nc2cccnn2c1=O |
| – | – | > 80 | – | > 80 | – | < 1 | < 1 | – | > 80 | < 1 | C[C@H](NC(=O)Cn1nc2cc(-c3ccccc3)ccn2c1=O)c1ccc(Cl)c(F)c1 |
| – | – | 50 | – | 50 | 10 | ≥ 100 | ≥ 100 | – | > 80 | – | C[C@H](NC(=O)Cn1nc2cc(OC3CN(C)C3)ccn2c1=O)c1ccc(OC(F)(F)F)cc1 |
| 1 | 1 | > 80 | – | 50 | 1 | – | – | – | 50 | – | C[C@H](NC(=O)Cn1nc2cc(C#N)ccn2c1=O)c1ccc(Cl)c(F)c1 |
| 1 | – | > 80 | – | > 80 | 1 | – | ≥ 100 | – | > 80 | – | C[C@H](NC(=O)Cn1nc2cc(N3CCC[C@@H](O)C3)ccn2c1=O)c1ccc(OC(F)(F)F)cc1 |
| 1 | – | > 80 | – | 50 | 1 | – | < 1 | – | 50 | – | C[C@H](NC(=O)Cn1nc2ccc(F)cn2c1=O)c1ccc(C(F)(F)F)cc1 |
| 1 | – | 50 | – | 25 | – | – | < 1 | – | 50 | < 1 | COc1ccc2nn(CC(=O)N[C@@H](C)c3ccc(OC(F)(F)F)cc3)c(=O)n2c1 |
| 1 | – | > 80 | – | 50 | – | – | < 1 | – | 50 | < 1 | COc1ccc2nn(CC(=O)N[C@@H](C)c3ccc(Cl)c(F)c3)c(=O)n2n1 |
| 1 | 10 | > 80 | – | > 80 | 1 | – | – | – | 50 | – | C[C@H](NC(=O)Cn1nc2cccnn2c1=O)c1ccc(Cl)c(F)c1 |
| 1 | 1 | > 80 | 25 | 50 | – | – | – | – | – | < 1 | COc1cccc2nn(CC(=O)N[C@@H](C)c3ccc(C)cc3)c(=O)n12 |
| 1 | 10 | > 80 | – | 50 | 1 | – | – | – | 50 | – | C[C@H](NC(=O)[C@@H](C)n1nc2ncccn2c1=O)c1ccc(Cl)c(F)c1 |
| 1 | – | > 80 | – | 50 | 1 | – | ≥ 100 | – | > 80 | – | Cc1ccc([C@H](C)NC(=O)Cn2nc3cccnn3c2=O)cc1Cl |
| 1 | 1 | > 80 | – | > 80 | – | – | – | – | > 80 | < 1 | C[C@H](NC(=O)Cn1nc2ccccn2c1=O)c1ccc(Cl)c(Cl)c1 |
| – | 10 | > 80 | – | > 80 | – | < 1 | – | – | 50 | < 1 | Cc1ccc2nn(CC(=O)N[C@@H](C)c3ccc(Cl)c(F)c3)c(=O)n2n1 |
| 1 | – | 50 | – | 50 | 1 | – | ≥ 100 | – | > 80 | – | COC1CCN(c2ccn3c(=O)n(CC(=O)N[C@@H](C)c4ccc(OC(F)(F)F)cc4)nc3c2)CC1 |
| 10 | 1 | > 80 | – | 50 | – | – | – | – | 50 | < 1 | Cc1ccnc2nn(CC(=O)N[C@@H](C)c3ccc(Cl)c(F)c3)c(=O)n12 |
| 1 | 10 | > 80 | – | > 80 | – | – | – | – | > 80 | < 1 | Cc1ccnn2c(=O)n(CC(=O)N[C@@H](C)c3ccc(Cl)c(F)c3)nc12 |
| – | 1 | > 80 | – | 50 | – | < 1 | – | – | 50 | < 1 | Cc1ccc([C@H](C)NC(=O)Cn2nc3ccc(F)cn3c2=O)cc1F |
| – | – | > 80 | – | 50 | 1 | ≥ 100 | ≥ 100 | – | 50 | – | Cc1cnn2c(=O)n(CC(=O)N[C@@H](C)c3ccc(OC(F)(F)F)cc3)nc2c1 |
| – | – | > 80 | 25 | – | – | ≥ 100 | < 1 | 25 | – | < 1 | COc1ccc2nn(CC(=O)N[C@@H](C)c3ccc(Cl)cc3)c(=O)n2n1 |
| 1 | – | 50 | – | 50 | – | – | < 1 | – | 50 | < 1 | C[C@H](NC(=O)Cn1nc2cccc(N3CCCCC3)n2c1=O)c1ccc(OC(F)(F)F)cc1 |
| – | – | > 80 | 25 | 50 | – | ≥ 100 | ≥ 100 | – | – | ≥ 100 | O=C(Cn1nc2ccc(F)cn2c1=O)NC1(c2cccc(Cl)c2)CC1 |
| 1 | 1 | > 80 | – | 50 | – | – | – | – | 50 | < 1 | Cc1ccc([C@H](C)NC(=O)Cn2nc3cc(Cl)ccn3c2=O)cc1 |
| 1 | 10 | > 80 | – | > 80 | – | – | – | – | > 80 | < 1 | Cc1ccc([C@H](C)NC(=O)Cn2nc3c(C)ccnn3c2=O)cc1F |
